Data taken from patent publication US11274214B2, “Composition of water based coating with a low content of volatile organic compounds and high resistance to dirt handle, and, use of water based coating” (OXITENO S.A. INDÚSTRIA E COMÉRCIO, priority 2017, dated 2022).

How the values were obtained:
[1] = Estimated Hansen solubility parameters and octanol/water partition coefficient of coalescents
Text: In order to perform the comparative tests, two commercially available products, Texanol™ and OPTIFILM 300™, were used.

[2] = Physical and chemical properties of isopentyl succinate

isopentyl succinate
Solubility in water (suggested by octanol/water partition coefficients) [1]: low solubility in water | Density [2]: 0.966 g/mL | Freezing point [2]: −25 °C | Relative evaporation rate [2]: 0.029 | Volatile content according to method 24 ([2]; method 24): 50%
